Five molecules from paper PMC10143306, “Seven New Lobane Diterpenoids from the Soft Coral Lobophytum catalai” (Marine Drugs, 2023) can be followed below.

The test system of the first series is L-02 (normal human hepatocytes) cell line. The series is described as follows: Cytotoxicity assay, SRB method, L-02. The series is classed as cell-based. Conditions: Homo sapiens, Hepatocyte; L-02, 30 μM, Table S16; read-out: Inhibition rate (%). How it is done: (§1) Moreover, the cytotoxic activity of these isolated compounds (1–7) was evaluated against the human leukemia K562, normal human hepatocyte L-02, human pancreatic cancer ASPC-1, and human breast cancer MDA-MB-231 cell lines.
(§2) The MTT method was used to evaluate cytotoxicity against the K562 (human leukemia) cell line, and the SRB method was used to evaluate cytotoxicity against the L-02 (normal human hepatocytes), ASPC-1 (human pancreatic cancer), and MDA-MB-231 (human breast cancer) cell lines. As a positive control, Adriamycin (doxorubicin) was used.
(The SRB assay estimates cell density from bound dye.)
For `C=CC1(C)CCC(C(C)=CC(=O)CC(C)(C)O)CC1C(=C)C` (stereo not shown) [Compound 4, Lobocatalen D], the inhibition (in general, the percentage by which the read-out fell short of the control) at 30 µM amounted to 21.6%.
Still for that read-out and setting: as for `C=CC1(C)CCC(C(C)=CC=CC(C)=O)CC1C(=C)C` (stereo not shown) [Compound 6, Lobocatalen F], the figure is 25.4%; as for `C=CC1(C)CCC(C(=O)C=CC(OC(C)=O)C(C)(C)O)CC1C(=C)C` (stereo not shown) [Compound 7, Lobocatalen G], 29.8%.

System in the next series: not listed separately
Put plainly: Cytotoxicity assay, SRB method, L-02. It counts as cell-based, human. Conditions: human, L-02 normal hepatocyte cells; L-02 cell line, SRB method; read-out: Cytotoxic activity (IC50). On the procedure: as §1, §2
Consider `C=CC1(C)CCC(C(C)=CC(=O)CC(C)(C)O)CC1C(=C)C` (stereo not shown) [Compound 4, Lobocatalen D], for which the IC50 (commonly the concentration needed to halve the response being measured) was over 30 µM.
On the same count and under the same terms, as for `C=CC1(C)CCC(C(C)=CC=CC(C)=O)CC1C(=C)C` (stereo not shown) [Compound 6, Lobocatalen F], the figure is over 30 µM; as for `C=CC1(C)CCC(C(=O)C=CC(OC(C)=O)C(C)(C)O)CC1C(=C)C` (stereo not shown) [Compound 7, Lobocatalen G], over 30 µM.

For another series, the system named is CuSO4-induced transgenic fluorescent zebrafish (Tg: zlyz-EGFP). The series is described as follows: Anti-inflammatory assay in CuSO4-induced transgenic fluorescent zebrafish (macrophage count around neuromasts). The series is classed as in vivo. Conditions: 20 μM, Table S15. How it is done: On account of the fact that research on the anti-inflammatory activity of lobane diterpenoids in zebrafish models has not been reported up to now, we attempted to identify lobane diterpenoids with anti-inflammatory activity in zebrafish models. The anti-inflammatory effect of compounds 1–7 was assessed in CuSO4-induced transgenic fluorescent zebrafish. CuSO4 can produce an intense acute inflammatory response in the neuromasts and mechanosensorial cells in the lateral line of zebrafish, stimulating the infiltration of macrophages. Thus, the number of macrophages surrounding the neuromasts in zebrafish can be observed and counted under a fluorescence microscope. Therefore, the anti-inflammatory activity of these lobane diterpenoids can be evaluated.
Figure 5 Anti-inflammatory assays of compounds 1–7. (a) Images of inflammatory sites in CuSO4-induced transgenic fluorescent zebrafish (Tg: zlyz-EGFP) expressing enhanced green fluorescent protein (EGFP) treated with compounds 1–7, using indomethacin as a positive control.
Healthy macrophage fluorescent transgenic zebrafish (Tg: zlyz-EGFP) were provided by the Biology Institute of Shandong Academy of Science (Jinan, China). The zebrafish maintenance and anti-inflammation assay were carried out as previously described. Each zebrafish larva was photographed using a fluorescence microscope (AXIO, Zom.V16), and the number of macrophages around the nerve mound was calculated using Image-Pro Plus 6.0 software (Rockville, MD, USA). One-way analysis of variance was conducted using GraphPad Prism 7.00 software (San Diego, CA, USA). Lobocatalens A–G (1–7) were tested for anti-inflammatory activities in the zebrafish models. Three dpf (days post-fertilization), healthy macrophage fluorescent transgenic zebrafish were used as animal models to evaluate the anti-inflammatory effects of compounds 1–7.
`C=CC1(C)CCC(C(C)=CC(=O)CC(C)(C)O)CC1C(=C)C` (stereo not shown) [Compound 4, Lobocatalen D]: the “Number of macrophages around nerve mound (mean ± SEM)” value is 22.22 ± 2.737.
Same read-out and setting: as for `C=CC1(C)CCC(C(=C)CCC(=O)C(C)(C)O)CC1C(=C)C` (stereo not shown) [Compound 5, Lobocatalen E], the figure is 21.89 ± 3.199.
Same read-out and setting: with `C=CC1(C)CCC(C(C)=CC=CC(C)=O)CC1C(=C)C` (stereo not shown) [Compound 6, Lobocatalen F] the figure was 26.2 ± 2.356.
The same measure, in the same setting: as for `C=CC1(C)CCC(C(=O)C=CC(OC(C)=O)C(C)(C)O)CC1C(=C)C` (stereo not shown) [Compound 7, Lobocatalen G], the figure is 18.6 ± 1.805.

The same series, now with this note: 20 μM, migration and number of macrophages surrounding the neuromasts.
With `C=CC1(C)CCC(C(=O)C=CC(OC(C)=O)C(C)(C)O)CC1C(=C)C` (stereo not shown) [Compound 7, Lobocatalen G], the “Anti-inflammatory activity (in words)” value was “moderate anti-inflammatory activity”.

The series is the same for the next values; noted with them: 40 μM, positive control, Table S15.
Regarding `COc1ccc2c(c1)c(CC(=O)O)c(C)n2C(=O)c1ccc(Cl)cc1` [Indomethacin, reference compound], the “Number of macrophages around nerve mound (mean ± SEM)” value worked out at 11.88 ± 1.575.

The same series, now with this note: Danio rerio, Macrophage, 20 μM, Table S15, read-out: Inhibition rate.
Turning to `C=CC1(C)CCC(C(C)=CC(=O)CC(C)(C)O)CC1C(=C)C` (stereo not shown) [Compound 4, Lobocatalen D], the inhibition at 20 µM stood at 30.3%.
Still for that read-out and setting: as for `C=CC1(C)CCC(C(=C)CCC(=O)C(C)(C)O)CC1C(=C)C` (stereo not shown) [Compound 5, Lobocatalen E], the figure is 31.4%.
Still for that read-out and setting: as for `C=CC1(C)CCC(C(C)=CC=CC(C)=O)CC1C(=C)C` (stereo not shown) [Compound 6, Lobocatalen F], the figure is 17.8%; as for `C=CC1(C)CCC(C(=O)C=CC(OC(C)=O)C(C)(C)O)CC1C(=C)C` (stereo not shown) [Compound 7, Lobocatalen G], 41.7%.

Still in this series, the particulars now being: Danio rerio, Macrophage, 40 μM, positive control, Table S15, read-out: Inhibition rate.
Take `COc1ccc2c(c1)c(CC(=O)O)c(C)n2C(=O)c1ccc(Cl)cc1` [Indomethacin, reference compound]: the inhibition at 40 µM came out at 62.8%.

The test system of the next series is MDA-MB-231 (human breast cancer) cell line. The series is described as follows: Cytotoxicity assay, SRB method, MDA-MB-231. Conditions: Homo sapiens; MDA-MB-231, 30 μM, Table S16; read-out: Inhibition rate (%). It counts as cell-based. How it is done: as §1, §2
With `C=CC1(C)CCC(C(C)=CC(=O)CC(C)(C)O)CC1C(=C)C` (stereo not shown) [Compound 4, Lobocatalen D], the inhibition at 30 µM was 18.4%.
The same measure, in the same setting: as for `C=CC1(C)CCC(C(=O)C=CC(OC(C)=O)C(C)(C)O)CC1C(=C)C` (stereo not shown) [Compound 7, Lobocatalen G], the figure is 10.4%.

System in the next series: not listed separately
Put plainly: Cytotoxicity assay, SRB method, MDA-MB-231. It counts as cell-based, human. Conditions: human, MDA-MB-231 breast cancer cells; MDA-MB-231 cell line, SRB method; read-out: Cytotoxic activity (IC50). How it is done:
as §1, §2
For `C=CC1(C)CCC(C(C)=CC(=O)CC(C)(C)O)CC1C(=C)C` (stereo not shown) [Compound 4, Lobocatalen D], the IC50 was over 30 µM.
Same read-out and setting: as for `C=CC1(C)CCC(C(=O)C=CC(OC(C)=O)C(C)(C)O)CC1C(=C)C` (stereo not shown) [Compound 7, Lobocatalen G], the figure is over 30 µM.

A further series has as its system ASPC-1 (human pancreatic cancer) cell line. Put plainly: Cytotoxicity assay, SRB method, ASPC-1. The series is classed as cell-based. Conditions: Homo sapiens, ASPC1; ASPC-1, 30 μM, Table S16; read-out: Inhibition rate (%). On the procedure:
as §1, §2
With `C=CC1(C)CCC(C(C)=CC(=O)CC(C)(C)O)CC1C(=C)C` (stereo not shown) [Compound 4, Lobocatalen D], the inhibition at 30 µM was 18.9%.
On the same count and under the same terms, as for `C=CC1(C)CCC(C(=O)C=CC(OC(C)=O)C(C)(C)O)CC1C(=C)C` (stereo not shown) [Compound 7, Lobocatalen G], the figure is 17.5%.

System in another series: not listed separately
Put plainly: Cytotoxicity assay, SRB method, ASPC-1. Conditions: human, ASPC-1 pancreatic cancer cells; ASPC-1 cell line, SRB method; read-out: Cytotoxic activity (IC50). The series is classed as cell-based, human. On the procedure: as §1, §2
Take `C=CC1(C)CCC(C(C)=CC(=O)CC(C)(C)O)CC1C(=C)C` (stereo not shown) [Compound 4, Lobocatalen D]: the concentration for half-maximal inhibition (IC50) was over 30 µM.
On to `C=CC1(C)CCC(C(=O)C=CC(OC(C)=O)C(C)(C)O)CC1C(=C)C` (stereo not shown) [Compound 7, Lobocatalen G], for which the IC50 was over 30 µM.

The next series deals with K562 (human leukemia) cell line. The series is described as follows: Cytotoxicity assay, MTT method, K562. Conditions: Homo sapiens, K562, K562, 0.9375 μM, Table S17; read-out: Inhibition rate (%). The series is classed as cell-based. On the procedure: as §1, §2
Regarding `C=CC1(C)CCC(C(=O)C=CC(OC(C)=O)C(C)(C)O)CC1C(=C)C` (stereo not shown) [Compound 7, Lobocatalen G], the inhibition at 0.9375 µM is 5.87%.

Still in this series, the particulars now being: Homo sapiens, K562, K562, 1.875 μM, Table S17; read-out: Inhibition rate (%).
With `C=CC1(C)CCC(C(=O)C=CC(OC(C)=O)C(C)(C)O)CC1C(=C)C` (stereo not shown) [Compound 7, Lobocatalen G], the inhibition at 1.875 µM was 9.55%.

Still in this series, the particulars now being: Homo sapiens, K562, K562, 3.75 μM, Table S17; read-out: Inhibition rate (%).
Regarding `C=CC1(C)CCC(C(=O)C=CC(OC(C)=O)C(C)(C)O)CC1C(=C)C` (stereo not shown) [Compound 7, Lobocatalen G], the inhibition at 3.75 µM worked out at 11.6%.

The same series, now with this note: Homo sapiens, K562, K562, 7.5 μM, Table S17; read-out: Inhibition rate (%).
For the molecule `C=CC1(C)CCC(C(=O)C=CC(OC(C)=O)C(C)(C)O)CC1C(=C)C` (stereo not shown) [Compound 7, Lobocatalen G], the inhibition at 7.5 µM amounted to 15.5%.

The same series, now with this note: Homo sapiens, K562, K562, 15 μM, Table S17; read-out: Inhibition rate (%).
For the molecule `C=CC1(C)CCC(C(=O)C=CC(OC(C)=O)C(C)(C)O)CC1C(=C)C` (stereo not shown) [Compound 7, Lobocatalen G], the inhibition at 15 µM is 21%.

The same series, now with this note: Homo sapiens, K562, K562, 30 μM, Table S16; read-out: Inhibition rate (%).
For the molecule `C=CC1(C)CCC(C(C)=CC(=O)CC(C)(C)O)CC1C(=C)C` (stereo not shown) [Compound 4, Lobocatalen D], the inhibition at 30 µM came to 36.7%.
The same measure, in the same setting: with `C=CC1(C)CCC(C(=C)CCC(=O)C(C)(C)O)CC1C(=C)C` (stereo not shown) [Compound 5, Lobocatalen E] the figure was 34.3%.
Still for that read-out and setting: with `C=CC1(C)CCC(C(=O)C=CC(OC(C)=O)C(C)(C)O)CC1C(=C)C` (stereo not shown) [Compound 7, Lobocatalen G] the figure was 63.5%.

The series is the same for the next values; noted with them: Homo sapiens, K562, K562, 30 μM, Table S17; read-out: Inhibition rate (%).
On to `C=CC1(C)CCC(C(=O)C=CC(OC(C)=O)C(C)(C)O)CC1C(=C)C` (stereo not shown) [Compound 7, Lobocatalen G], for which the inhibition at 30 µM stood at 73.3%.

System in a further series: not listed separately
Put plainly: Cytotoxicity assay, MTT method, K562. It counts as cell-based, human. Conditions: human, K562 leukemia cells; K562 cell line, MTT method; read-out: Cytotoxic activity (IC50). On the procedure: as §1, §2
In general terms: Tetrazolium dyes change colour on reduction, which living cells bring about.
With `C=CC1(C)CCC(C(C)=CC(=O)CC(C)(C)O)CC1C(=C)C` (stereo not shown) [Compound 4, Lobocatalen D], the IC50 was over 30 µM.
Same read-out and setting: with `C=CC1(C)CCC(C(=C)CCC(=O)C(C)(C)O)CC1C(=C)C` (stereo not shown) [Compound 5, Lobocatalen E] the figure was over 30 µM.
As to `C=CC1(C)CCC(C(=O)C=CC(OC(C)=O)C(C)(C)O)CC1C(=C)C` (stereo not shown) [Compound 7, Lobocatalen G], the IC50 came out at 28 µM.
